Where “and” joins values, the source holds several entries; their conditions need not be identical. Identical values can stand only once. Like-named read-outs stand apart in the source and are kept apart here.
Columns and labels:
[1] = test system: T. cruzi epimastigotes; assay: Trypanocidal capacity assay (alamarBlue), epimastigotes; type: cell-based, Trypanosoma cruzi; conditions: for SI (CC50/IC50), T. cruzi: epimastigotes vs murine macrophages; for IC50: epimastigote stage, read-out: T. cruzi IC50 (µM ± SD)
Procedure: (§1) To perform the experiments, promastigotes of L. amazonensis (MHOM/BR/77/LTB0016) and L. donovani (MHOM/IN/90/GE1F8R) and epimastigote T. cruzi (Y strain) were employed. Leishmania species were cultured in Schneider’s medium (Sigma-Aldrich, Madrid, Spain) at 26 °C supplemented with 10% fetal bovine serum (VWR, Biowest, Nuaillé, France) as well as in RPMI 1640 medium (Gibco, Thermo Fisher, Madrid, Spain). Epimastigotes of T. cruzi were cultured in Liver Infusion Tryptose (LIT) medium supplemented with 10% fetal bovine serum at 26 °C. For the cytotoxicity assays, murine macrophage cell line J774A.1 (ATCC TIB-67) was maintained at 37 °C in a 5% CO2 atmosphere in RPMI 1640 medium supplemented with 10% fetal bovine serum.
For the evaluation against the epimastigote stage of T. cruzi, assays were performed following the same procedure mentioned in Section 3.5.1., modifying the density to 2 × 10^5 parasite/well and using LIT medium.

[2] = Cytotoxicity assay (alamarBlue); type: cell-based, murine; conditions: mouse, J774A.1 macrophage cell line; J774A.1, 24 h; read-out: Murine Macrophages CC50
Procedure: as §1
(§2) The cytotoxicity was evaluated using a macrophage cell line J774A.1 in RPMI medium. Macrophages were plated and at 10^5 macrophages/well and, subsequently, serial dilution of samples were added to the plates. After 24 h of incubation cell viability was determined by the alamarBlue® [28].

[3] = test system: L. amazonensis promastigotes; assay: Leishmanicidal activity assay (alamarBlue), promastigotes; type: cell-based, Leishmania amazonensis; conditions: for IC50 / fold more potent than the reference drug against L. amazonensis: promastigote stage; for IC50: read-out: L. amazonensis IC50 (µM ± SD); for fold more potent than the reference drug against L. amazonensis: vs miltefosine; for SI (CC50/IC50), L. amazonensis: promastigotes vs murine macrophages
Procedure: as §1
(§3) Promastigote in logarithmic phase were used for plate preparation, and the in vitro antiprotozoal assay was performed in 96-well plates. The different fractions or compounds were serially diluted on the wells and 10^6 parasites/mL were finally added. The activity of the fraction was calculated by the alamarBlue® method. In addition, the active pure molecules were tested against the amastigote stage of L. amazonensis.

[4] = test system: T. cruzi; assay: Measurement of ATP (Cell Titer-Glo); type: cell-based, Trypanosoma cruzi; conditions: IC90, 24 h
Procedure: (§4) To determine the ATP level of the parasites, the Cell Titer-Glo® Luminescent Cell Viability Assay (Promega, Madison, WI, USA) was used following the manufacturer’s instructions after incubation of the parasites with the calculated IC90 of the tested withanolides for 24 h.

[5] = test system: L. amazonensis; assay: Measurement of ATP (Cell Titer-Glo); type: cell-based, Leishmania amazonensis; conditions: IC90, 24 h
Procedure: as §4

[6] = test system: L. amazonensis; assay: Chromatin condensation determination (Hoechst 33342/propidium iodide); type: cell-based, Leishmania amazonensis; conditions: IC90, 24 h
Procedure: The detection of condensed chromatin, was performed using the Vybrant™ Apoptosis Assay Kit #5, Hoechst 33342/Propidium Iodide (Invitrogen, Carlsbad, CA, USA). Parasites were incubated with the IC90 of the pure compounds for 24 h, then collected and centrifuged. The cell pellet was resuspended in RPMI, added to a black plate and incubated with the Hoechst 33342 and the propidium iodide. Then the plate was protected from light for 20 min at 4 °C. The EVOS FL Cell Imaging System (Invitrogen, ThermoFisher, Carlsbad, CA, USA) was used to observe the cells, using the DAPI (Hoechst) and RFP (PI) Light Cubes.

[7] = test system: L. donovani promastigotes; assay: Leishmanicidal activity assay (alamarBlue), promastigotes; type: cell-based, Leishmania donovani; conditions: for IC50: promastigote stage; for SI (CC50/IC50), L. donovani: promastigotes vs murine macrophages
Procedure: as §1, §3

[8] = test system: intracellular amastigote stage of L. amazonensis; assay: Amastigote activity assay (parasite rescue and transformation, alamarBlue); type: cell-based, Leishmania amazonensis; conditions: for IC50: intracellular amastigote stage, read-out: L. amazonensis IC50 (µM ± SD); for SI (CC50/IC50), L. amazonensis amastigote: amastigotes vs murine macrophages; for fold more potent than the reference drug against L. amazonensis amastigotes: intracellular amastigote, vs miltefosine
Procedure: as §3
The amastigote activity was performed according to Jain et al.. After allowing the transformation of rescued amastigotes to promastigotes, the activity was evaluated by AlamarBlue method. After incubation, the fluorescence was measured in a Perkin Elmer EnSpire spectrofluorometer and fluorescence was measured at emission peak 585 nm.

[9] = test system: murine macrophage cell line J774A.1; assay: Cytotoxicity assay (alamarBlue); type: cell-based
Procedure: as §1, §2

Row | Compound | SI (CC50/IC50), T. cruzi [1] | CC50 at 24 h [2] | fold more potent than the reference drug against L. amazonensis [3] [fold] | SI (CC50/IC50), L. amazonensis [3] | fold more potent than benznidazole against T. cruzi epimastigotes [1] [fold] | SI (CC50/IC50), L. donovani [7] | IC50 ([8]; Leishmania amazonensis) [µM] | SI (CC50/IC50), L. amazonensis amastigote [8] | fold more potent than the reference drug against L. amazonensis amastigotes [8] [fold] | further results
1 | O=C(Cn1ccnc1[N+](=O)[O-])NCc1ccccc1 [Benznidazole] | 57.54 | 104 µg/mL and 400 µM |  |  |  |  |  |  |  | 
2 | CC1=C(CO)C(=O)O[C@@H]([C@@H](C)[C@H]2CC[C@H]3[C@@H]4C[C@H]5O[C@]56[C@@H](O)C=CC(=O)[C@]6(C)[C@H]4CC[C@]23C)C1 [Compound 1, withaferin A] | 11.69 | 11900 ± 1080 nM | 7.8 | 14.36 | 6.8 | 0.91 | 0.055 ± 0.009 | 216.73 | 56 | IC50 ([3]; Leishmania amazonensis): 0.83 ± 0.07 µM; IC50 ([1]; Trypanosoma cruzi): 1.02 ± 0.1 µM; ATP level [4]: slight decrease; total ATP level [5]: strong decrease; propidium iodide staining [6]: staining in red was observed; IC50 ([7]; Leishmania donovani, read-out: L. donovani IC50 (µM ± SD)): 13.2 ± 1.16 µM
3 | CCCCCCCCCCCCCCCCOP(=O)([O-])OCC[N+](C)(C)C [Miltefosine, reference compound] |  | 29.4 µg/mL and 72.2 µM |  | 11.14 |  | 21.81 | 3.12 ± 0.12 | 23.13 |  | IC50 ([7]; Leishmania donovani, read-out: L. donovani IC50): 1.35 µg/mL
4 | witharistatin [Compound 3] |  |  | 2.3 |  | 2.9 |  |  | 58.66 | 14.9 | IC50 [3]: 2.82 ± 0.07 µM; IC50 [1]: 2.41 ± 0.11 µM; CC50 [9]: 12300 ± 1160 nM; IC50 ([7]; read-out: L. donovani IC50 (µM ± SD)): 20.9 ± 1.33 µM; IC50 [8]: 0.209 ± 0.028 µM

From article PMC6963971, “Withanolides from Withania aristata as Antikinetoplastid Agents through Induction of Programmed Cell Death” (Pathogens, 2019)
